Legend:
Type in all cases: cell-based
human A1 receptor = target: T1, human A1 receptor (Homo sapiens, UniProt P30542); experiment: cAMP (HTRF) functional assay, recombinant CHO cells expressing human A1 receptor, forskolin + agonist CPA
T1 construct: expressed in transfected cells; host or cells: CHO
T1 sequence (P30542 1-326): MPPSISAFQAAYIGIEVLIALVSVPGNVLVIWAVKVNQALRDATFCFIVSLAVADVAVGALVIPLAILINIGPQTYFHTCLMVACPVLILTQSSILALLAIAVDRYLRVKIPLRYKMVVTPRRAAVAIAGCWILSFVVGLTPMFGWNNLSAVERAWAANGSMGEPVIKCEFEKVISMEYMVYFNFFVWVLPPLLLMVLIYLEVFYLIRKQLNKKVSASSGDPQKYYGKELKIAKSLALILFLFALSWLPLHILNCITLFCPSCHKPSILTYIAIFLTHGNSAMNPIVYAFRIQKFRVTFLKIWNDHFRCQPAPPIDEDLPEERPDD
Protocol: (§1) The functional activities of human A2A, A2B, A1 and A3 receptors were determined by quantification of cAMP, being the second messenger for adenosine receptors.
(§2) For human A1 and A3 receptors, recombinant CHO cells, expressing either A1 or A3-receptor, were used. As both receptors couple to Gi proteins, the assay protocol was adapted:
(§3) Cells were seeded into 384-well plates, forskolin, test compounds and agonists (CPA for A1- and IB-MECA for A3-receptor) were added. After 30 min incubation, HTRF reagents (cAMP dynamic 2, Cis Bio) were added and the cellular cAMP levels were determined using the ENVISION (Perkin Elmer) plate reader. Obtained raw data were normalized against the inhibitor control and the neural control (DMSO) and the normalized data were fitted using GeneData software.

human A3 receptor = target: T2, human A3 receptor (Homo sapiens, UniProt P0DMS8); experiment: cAMP (HTRF) functional assay, recombinant CHO cells expressing human A3 receptor, forskolin + agonist IB-MECA
T2 construct: expressed in transfected cells; host or cells: CHO
T2 sequence (P0DMS8 1-318): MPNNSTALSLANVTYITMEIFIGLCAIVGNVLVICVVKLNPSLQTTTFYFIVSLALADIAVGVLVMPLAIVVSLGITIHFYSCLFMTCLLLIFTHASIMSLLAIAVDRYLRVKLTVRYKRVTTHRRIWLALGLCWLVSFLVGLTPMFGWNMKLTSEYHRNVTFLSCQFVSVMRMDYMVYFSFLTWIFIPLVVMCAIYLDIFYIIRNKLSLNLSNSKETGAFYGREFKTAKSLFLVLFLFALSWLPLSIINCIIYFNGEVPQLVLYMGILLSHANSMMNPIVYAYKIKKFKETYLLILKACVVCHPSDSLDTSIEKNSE
Protocol: as §1, §2, §3

human A2B receptor = target: T3, human A2B receptor (Homo sapiens, UniProt P29275); experiment: cAMP (HTRF) functional assay, recombinant HEK293 cells expressing human A2B receptor, agonist NECA
T3 construct: expressed in transfected cells; host or cells: HEK293
T3 sequence (P29275 1-332): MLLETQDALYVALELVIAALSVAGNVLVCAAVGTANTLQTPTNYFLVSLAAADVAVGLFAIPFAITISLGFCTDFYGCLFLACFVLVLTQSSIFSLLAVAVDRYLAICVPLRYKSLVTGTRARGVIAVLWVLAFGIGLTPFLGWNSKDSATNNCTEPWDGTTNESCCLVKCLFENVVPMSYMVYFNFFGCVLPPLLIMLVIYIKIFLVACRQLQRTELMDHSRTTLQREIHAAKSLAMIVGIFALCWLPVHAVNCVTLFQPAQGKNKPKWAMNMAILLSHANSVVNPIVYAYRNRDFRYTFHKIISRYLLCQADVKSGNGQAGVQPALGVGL
Protocol: as §1, §3

human A2A receptor = target: T4, human A2A receptor (Homo sapiens, UniProt P29274); experiment: cAMP (HTRF) functional assay, recombinant HEK293 cells expressing human A2A receptor, agonist NECA
T4 construct: expressed in transfected cells; host or cells: HEK293
Protocol: as §1, §3

T4 sequence (P29274 whole entry): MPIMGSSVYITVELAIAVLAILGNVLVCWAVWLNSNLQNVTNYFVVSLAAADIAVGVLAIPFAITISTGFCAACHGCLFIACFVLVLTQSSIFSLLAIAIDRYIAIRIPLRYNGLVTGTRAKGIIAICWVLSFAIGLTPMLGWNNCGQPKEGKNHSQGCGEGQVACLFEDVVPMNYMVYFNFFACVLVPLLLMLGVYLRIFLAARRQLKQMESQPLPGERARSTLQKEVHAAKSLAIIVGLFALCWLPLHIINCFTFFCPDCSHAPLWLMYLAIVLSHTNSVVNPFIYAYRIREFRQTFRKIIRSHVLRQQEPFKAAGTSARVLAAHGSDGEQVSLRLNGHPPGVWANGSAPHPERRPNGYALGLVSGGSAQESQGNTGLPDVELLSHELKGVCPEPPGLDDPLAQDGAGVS

IC50 (human A1 receptor) [nM]	IC50 (human A3 receptor) [nM]	IC50 (human A2B receptor) [nM]	IC50 (human A2A receptor) [nM]	SMILES
< 1000	> 1000	< 100	< 10	COCc1ccc(C(=O)Nc2nc3c(OC)ncc(C4CCOCC4)c3s2)cc1 [compound 23, 4-Methoxymethyl-N-[4-methoxy-7-(tetrahydro-pyran-4-yl)-thiazolo[4,5-c]pyridin-2-yl]-benzamide]
< 1000	< 1000	< 100	< 10	COCCn1cc(C(=O)Nc2nc3c(OC)ncc(C4CCOCC4)c3s2)cn1 [compound 29, 1-(2-Methoxy-ethyl)-1H-pyrazole-4-carboxylic acid [4-methoxy-7-(tetrahydro-pyran-4-yl)-thiazolo[4,5-c]pyridin-2-yl]-2-amide]
< 1000	> 1000	< 100	< 10	COc1ncc(C2CCOCC2)c2sc(NC(=O)N3CCC(C)(O)CC3)nc12 [compound 30, 4-Hydroxy-4-methyl-piperidine-1-carboxylic acid [4-methoxy-7-(tetrahydro-pyran-4-yl)-thiazolo[4,5-c]pyridin-2-yl]-amide]
< 1000	> 1000	< 100	< 10	COc1ncc(-c2ccccc2)c2sc(NC(=O)N3CCC4(CCCOC4)C3)nc12 (stereo not shown) [compound 52, 7-Oxa-2-aza-spiro[4.5]decane-2-carboxylic acid (4-methoxy-7-phenyl-thiazolo[4,5-c]pyridin-2-yl)-amide]
> 1000	> 1000	< 100	< 10	COc1ncc(-c2ccccc2)c2sc(NC(=O)N3CCC4(CCOCC4)C3)nc12 [compound 53, 8-Oxa-2-aza-spiro[4.5]decane-2-carboxylic acid (4-methoxy-7-phenyl-thiazolo[4,5-c]pyridin-2-yl)-amide]
< 1000	> 1000	< 100	< 10	COc1ncc(-c2ccccc2)c2sc(NC(=O)N3CCC4(CCOC4)C3)nc12 (stereo not shown) [compound 54, 2-Oxa-7-aza-spiro[4.4]nonane-7-carboxylic acid (4-methoxy-7-phenyl-thiazolo[4,5-c]pyridin-2-yl)-amide]
< 1000	> 1000	< 10	< 10	COc1ncc(-c2ccccc2)c2sc(NC(=O)c3ccc(C(=O)N(C)C)cc3)nc12 [compound 58, N-(4-Methoxy-7-phenyl-thiazolo[4,5-c]pyridin-2-yl)-N′,N′-dimethyl-terephthalamide]
> 1000	> 1000	< 100	< 10	COc1ncc(-c2cnn(C)c2)c2sc(NC(=O)N3CCC4(CCOC4)C3)nc12 (stereo not shown) [compound 82, 2-Oxa-7-aza-spiro[4.4]nonane-7-carboxylic acid [4-methoxy-7-(1-methyl-1H-pyrazol-4-yl)-thiazolo[4,5-c]pyridin-2-yl]-amide]
> 1000	> 1000	< 100	< 10	COc1ncc(C2CCOCC2)c2sc(NC(=O)c3ccc(C(=O)N(C)C)cc3)nc12 [compound 113, N-[4-Methoxy-7-(tetrahydro-pyran-4-yl)-thiazolo[4,5-c]pyridin-2-yl]-N′,N′-dimethyl-terephthalamide]
< 1000	> 1000	< 100	< 10	COc1ncc(-c2cnn(C)c2)c2sc(NC(=O)c3cnc(C)o3)nc12 [compound 130, 2-Methyl-oxazole-5-carboxylic acid [4-methoxy-7-(1-methyl-1H-pyrazol-4-yl)-thiazolo[4,5-c]pyridin-2-yl]-amide]
> 1000	< 1000	< 100	< 100	COc1ncc(N2CC3(CCCO3)C2)c2sc(NC(=O)c3cnn(C)c3)nc12 [compound 156, 1-Methyl-1H-pyrazole-4-carboxylic acid [4-methoxy-7-(5-oxa-2-aza-spiro[3.4]oct-2-yl)-thiazolo[4,5-c]pyridin-2-yl]-amide]
> 1000	> 1000	< 100	< 10	COc1ncc(N2CCOCC2)c2sc(NC(=O)C3CC3)nc12 [compound 167, Cyclopropanecarboxylic acid (4-methoxy-7-morpholin-4-yl-thiazolo[4,5-c]pyridin-2-yl)-amide]
< 1000	< 1000	< 100	< 10	COc1ncc(N2CCOCC2)c2sc(NC(=O)c3cnn(C)c3)nc12 [compound 171, 1-Methyl-1H-pyrazole-4-carboxylic acid (4-methoxy-7-morpholin-4-yl-thiazolo[4,5-c]pyridin-2-yl)-amide]
> 1000	> 1000	< 100	< 10	COc1ncc(-c2cnn(C)c2)c2sc(NC(=O)N3CC[C@]4(CCOC4)C3)nc12 [compound 173, (S)-2-Oxa-7-aza-spiro[4.4]nonane-7-carboxylic acid [4-methoxy-7-(1-methyl-1H-pyrazol-4-yl)-thiazolo[4,5-c]pyridin-2-yl]-amide]
> 1000	< 1000	< 100	< 10	COc1ncc(-c2cnn(C)c2)c2sc(NC(=O)C3CC3)nc12 [compound 179, Cyclopropanecarboxylic acid [4-methoxy-7-(1-methyl-1H-pyrazol-4-yl)-thiazolo[4,5-c]pyridin-2-yl]-amide]
< 1000	< 1000	< 100	< 10	COc1ncc(-c2ccccc2)c2sc(NC(=O)c3cnc(C)o3)nc12 [compound 186, 2-Methyl-oxazole-5-carboxylic acid (4-methoxy-7-phenyl-thiazolo[4,5-c]pyridin-2-yl)-amide]
< 1000	< 1000	< 100	< 10	COc1ncc(-c2ccccc2)c2sc(NC(=O)C3CC3)nc12 [compound 187, Cyclopropanecarboxylic acid (4-methoxy-7-phenyl-thiazolo[4,5-c]pyridin-2-yl)-amide]
< 1000	< 1000	< 100	< 10	COc1ncc(-c2ccccc2)c2sc(NC(=O)c3cnc(C)s3)nc12 [compound 190, 2-Methyl-thiazole-5-carboxylic acid (4-methoxy-7-phenyl-thiazolo[4,5-c]pyridin-2-yl)-amide]
< 1000	> 1000	< 100	< 10	COc1ncc(-c2cccc(F)c2)c2sc(NC(=O)N3CCC4(CCOCC4)C3)nc12 [compound 194, 8-Oxa-2-aza-spiro[4.5]decane-2-carboxylic acid [7-(3-fluoro-phenyl)-4-methoxy-thiazolo[4,5-c]pyridin-2-yl]-amide]
> 1000	> 1000	< 100	< 10	COc1ncc(-c2ccccc2F)c2sc(NC(=O)N3CCC4(CCOCC4)C3)nc12 [compound 195, 8-Oxa-2-aza-spiro[4.5]decane-2-carboxylic acid [7-(2-fluoro-phenyl)-4-methoxy-thiazolo[4,5-c]pyridin-2-yl]-amide]
< 1000	< 1000	< 100	< 10	COc1ncc(-c2ccccc2)c2sc(NC(=O)C3(N)CC3)nc12 [compound 203, 1-Amino-cyclopropanecarboxylic acid (4-methoxy-7-phenyl-thiazolo[4,5-c]pyridin-2-yl)-amide]
< 1000	> 1000	< 100	< 10	COc1ncc(-c2ccccc2)c2sc(NC(=O)N3CC[C@@]4(CCCOC4)C3)nc12 [compound 204, (S)-7-Oxa-2-aza-spiro[4.5]decane-2-carboxylic acid (4-methoxy-7-phenyl-thiazolo[4,5-c]pyridin-2-yl)-amide]
